Patent publication US11286278B2, “DPEP-1 binding agents and methods of use” (Arch Biopartners, Inc., priority 2018, dated 2022)
Ends that are not written are not given here.

What was measured:
[1] = Circular dichroism spectroscopy of LSALT peptide and analogs; type: physicochemical; set-up: Inducible Helical Structure (50% TFE-benign): unit not given here
Method: The physical and chemical properties of protein therapeutics are critical factors that influence the ease of manufacturing, development and clinical use. The LSALT peptide was evaluated in terms of its solubility, aggregation state and stability using a variety of biophysical methods.
In circular dichroism spectroscopy the ellipticity value at 222 nm is a measure of a-helical content. 50% trifluoroethanol is a hydrophobic solvent and induces α-helical structure if the structure can be induced. All of the peptides tested can be induced to adopt α-helical structure. The peptides are random coils in benign conditions (non-denaturing). The buffer conditions were aqueous phosphate, pH 7.0.

human DPEP2 = target: T1, human DPEP2 (Homo sapiens, UniProt Q9H4A9); assay: Immunofluorescence binding to Cos-1 cells transfected with human DPEP2; settings: Alexa-488 conjugate
T1 construct: expressed in transfected cells; host or cells: Cos-1
Method: (§1) Cos-1 cells were transiently transfected with either 3 μg of human DPEP-1, DPEP2, or DPEP3 gene using Lipofectamine 2000 (Invitrogen) reagent in OptiMEM medium. 24 hours after transfection, DPEP-1, DPEP2, or DPEP3 expressing cells were re-seeded on collagen coated (neutralized) wells in 24 well plates and allowed to grow for 24 hours at 37° C. […] Cells were blocked with FBS/NBSA/Tween in PBS for 30 minutes on ice. Cells were then washed with PBS and incubated with LSALT or GFE-1, conjugated with Alexa-488 (green). After incubation, cells were washed with PBS and stained with DAPI for 5 minutes on ice. Cells were then washed with PBS and fixed using 4% paraformaldehyde and immunofluorescence microscopy was performed to assess binding. Representative photomicrographs are shown for each experimental condition (n=3) in FIG. 6A. Proteins from DPEP-1, DPEP2 and DPEP3 transfected cells were isolated after 48 hours using octyl-glucoside/RIPA lysis buffer and western blot analysis was performed to assess DPEP-1, DPEP2 and DPEP3 protein expression using specific antibodies; DPEP-1 antibody (Sigma), DPEP2 (Abcam) and DPEP3 (Santacruz). Blots were stripped and reprobed with an anti-β-actin.

human DPEP3 = target: T2, human DPEP3 (Homo sapiens, UniProt Q9H4B8); assay: Immunofluorescence binding to Cos-1 cells transfected with human DPEP3; settings: Alexa-488 conjugate
T2 construct: expressed in transfected cells; host or cells: Cos-1
T2 sequence (Q9H4B8 36-463): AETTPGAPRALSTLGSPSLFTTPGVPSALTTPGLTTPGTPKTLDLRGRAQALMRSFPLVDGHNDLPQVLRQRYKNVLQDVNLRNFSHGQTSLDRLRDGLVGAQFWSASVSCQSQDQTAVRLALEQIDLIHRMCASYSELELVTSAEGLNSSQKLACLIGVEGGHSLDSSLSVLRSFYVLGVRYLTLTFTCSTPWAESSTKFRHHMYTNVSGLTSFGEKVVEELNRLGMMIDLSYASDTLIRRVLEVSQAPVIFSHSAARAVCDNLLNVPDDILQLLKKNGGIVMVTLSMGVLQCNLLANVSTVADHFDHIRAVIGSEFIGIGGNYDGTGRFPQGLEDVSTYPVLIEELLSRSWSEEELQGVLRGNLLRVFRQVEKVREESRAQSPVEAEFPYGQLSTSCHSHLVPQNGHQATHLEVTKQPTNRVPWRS
Method: as §1

[2] = Incubation in whole human blood, LC/MS of metabolites; type: in vitro ADME; settings: 50 μg/mL, whole human blood (citrate or K2 EDTA), up to 120 min
Method: Plasma was separated for each sample and phosphoric acid added to stabilize peptide at each timepoint. Samples were assessed for LSALT and its' metabolites using LC/MS. LSALT metabolites were identified using PEAKS X and database searches against LSALT and the human proteome. […] Transfected cells were positively selected for using geneticin resistance and subcloned to generate stably transfected DPEP1 clones. Stably transfected DPEP1 HEK cells were resuspended and incubated with biotinylated LSALT fragment peptides (50 μM) for 1 hour at 37° C. before PBS washes. Bound biotinylated peptide was detected via secondary streptavidin fluorescent conjugate (30 min. incubation at 37° C.) and washed with PBS. Peptide binding was analyzed via flow cytometer. Percentage of peptide binding was compared relative to negative control. […] LysM^(gfp) mice were subjected to endotoxemia via intravenous injection of lipopolysaccharide (LPS, O111:B4) at a dose of 5 mg/kg. The kidney was imaged using multiphoton microscopy at 4 hours post-injection. Various LSALT fragments was used intravenously to pretreat mice 10 min. before LPS injection. Inflammation was quantified by manual counting of monocyte adhesion in single microscopy fields (LPS vs. Fragment C; n=3-6 fields/group; ***:p=0.004).

metastatic cancer cells = assay: Metastasis model in mice; type: in vivo; settings: peptide 1 mM

T1 sequence (Q9H4A9 33-463): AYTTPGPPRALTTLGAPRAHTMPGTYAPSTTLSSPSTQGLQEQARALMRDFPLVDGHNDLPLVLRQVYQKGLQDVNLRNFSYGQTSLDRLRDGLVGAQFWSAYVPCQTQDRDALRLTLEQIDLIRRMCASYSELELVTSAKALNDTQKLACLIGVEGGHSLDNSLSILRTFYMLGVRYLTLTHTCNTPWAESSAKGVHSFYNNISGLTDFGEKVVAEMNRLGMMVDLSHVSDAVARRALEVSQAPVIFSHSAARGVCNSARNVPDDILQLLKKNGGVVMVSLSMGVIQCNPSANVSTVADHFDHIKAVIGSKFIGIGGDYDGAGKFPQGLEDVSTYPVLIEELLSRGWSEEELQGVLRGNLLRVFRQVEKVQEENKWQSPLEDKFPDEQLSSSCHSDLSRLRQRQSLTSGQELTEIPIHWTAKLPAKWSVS

Inducible Helical Structure (50% TFE-benign) ([1]; 222 nm): 23,925
[θ] (222 nm) 50% TFE ([1]; 222 nm, 50% TFE): −72298
% Inducible Helical Structure (Inducible/50% TFE) ([1]; 222 nm, 50% TFE is considered 100% folded): 33.1%
[θ] (222 nm) Benign (No TFE) ([1]; 222 nm, benign buffer (100 mM KCl, 50 mM Na2HPO4/NaH2PO4, pH 7.0)): −48373
binding to human DPEP2 transfected Cos-1 cells (human DPEP2): does not Bind
binding to human DPEP3 transfected Cos-1 cells (human DPEP3): does not Bind
Substance: H-LSALTPSPSWLKYKAL [LSALT]
secondary structure by CD ([1]; aqueous buffer / benign conditions, pH 7.0): minima at 222 nm characteristic of a α-helical conformation
metabolism in whole blood [2]: metabolized in whole blood into smaller fragments
tumor burden in livers (liver metastatic lesions) (metastatic cancer cells; animals injected with 4T1 murine breast cancer cells): reduces tumor burden in livers of animals injected with metastatic cancer cells
tumor burden in livers and lungs (metastatic cancer cells; animals injected with metastatic cancer cells): reduces tumor burden in livers and lungs
